The source of these data is US20240307383A1 (AstraZeneca AB, priority 2023, published 2024).

Like-named read-outs stand apart in the source and are kept apart here.

Data set [1] relates to patients with type 2 diabetes and CKD. Particulars: post hoc analysis of the CREDENCE trial; cited from earlier work.
The test system of data set [2] is healthy volunteers and patients with type 2 diabetes. Conditions: cited from earlier work.
In data set [3] the test system is patients having chronic kidney disease. In words: Diastolic blood pressure change from baseline, participants having UACR >700 mg/g (FIG. 7B, Table 11B). The class given is in vivo, human. Particulars: for Diastolic blood pressure, mean change from baseline: Dapa 10 mg + placebo, UACR >700 mg/g.
Data set [4] has the same test system. Description: Systolic blood pressure change from baseline, all participants (Example 3, FIG. 6, Table 10B). The class given is in vivo, human.
Data set [5] shares this test system. In words: UACR change from baseline over 12 weeks (Example 3, FIG. 5). Conditions: dapagliflozin 10 mg alone; plateau over 12-week period; UACR>700 mg/g. The class given is in vivo, human.
The test system is the same in data set [6]. Description: Systolic blood pressure change from baseline, participants having UACR >700 mg/g (FIG. 7A, Table 11A). Particulars: for Systolic blood pressure, mean change from baseline: Dapa 10 mg + placebo, UACR >700 mg/g. The class given is in vivo, human.
Another data set concerns pregnant rabbits. Particulars: period of major embryonic organogenesis; cited from earlier work.
The conditions of data set [7]: observations so far; cited from earlier work.
The mark [8] stands for this setting: dapagliflozin 10 mg + placebo, end of 12-week period, UACR>700 mg/g.

In the case of `Cc1ccc([C@@H]2O[C@H](CO)[C@@H](O)[C@H](O)[C@H]2O)cc1Cc1ccc(-c2ccc(F)cc2)s1` [canagliflozin], in data set [1], the “Effect on UACR levels” value was “failed to reduce UACR levels below 300 mg/g in a substantial number of patients”.

For `CCOc1ccc(Cc2cc([C@@H]3O[C@H](CO)[C@@H](O)[C@H](O)[C@H]3O)ccc2Cl)cc1` [dapagliflozin, (1S)-1,5-anhydro-1-{4-chloro-3-[(4-ethoxyphenyl)methyl]phenyl}-D-glucitol], the Well tolerated dose result is “up to 100 mg/day” in data set [2] (repeat dose testing for 14 days in healthy volunteers and patients with type 2 diabetes); “up to 500 mg/day” in data set [2] (single dose testing in healthy volunteers). Also, the “Diastolic blood pressure, mean change from baseline” value was −2.9 in data set [3] (Week 1); −2.4 in data set [3] (Week 3); −2.7 in data set [3] (Week 6); −2.0 in data set [3] (Week 9); −2.2 in data set [3] (Week 12). The “Mean reduction in diastolic blood pressure relative to baseline” value in data set [3] (setting [8]) is recorded as “approximately 2%”. For the same compound, in data set [4] (Dapa 10 mg + placebo, all participants), the “Systolic blood pressure, mean change” value was −3.4. Moreover, in data set [4] (dapagliflozin 10 mg + placebo, 12-week period, all participants), the “Decrease in systolic blood pressure from baseline” value was found to be 3.4%. Also, the “Systolic blood pressure after final planned dose” value in data set [4] (dapagliflozin 10 mg + placebo, week 14) is reported as “returned to baseline levels”. Besides, in data set [5], the “Mean percent decrease of UACR from baseline” value is “approximately 20%”. In addition, the “Systolic blood pressure, mean change from baseline” value in data set [6] (Week 1) is listed as −5.7; in data set [6] (Week 3), −6.1; in data set [6] (Week 6), −6.5; in data set [6] (Week 9), −2.9; in data set [6] (Week 12) it was −4.6. In addition, the “Mean reduction in systolic blood pressure from baseline” value in data set [6] (setting [8]) is recorded as “over 4%”.

As to `COc1nc(C)cnc1NS(=O)(=O)c1cccnc1-c1ccc(-c2nnco2)cc1` [zibotentan, N-(3-methoxy-5-methylpyrazin-2-yl)-2-[4-(1,3,4-oxadiazol-2-yl)phenyl]pyridine-3-sulfonamide], in the data set with pregnant rabbits, the “Dose levels causing teratogenic effects” value is reported as at least 1 mg/kg/day. Also, the Hepatotoxicity entry in data set [7] was “has not been observed”.
